Results: patent publication US5436271A, “N^6 -(hydrazinoiminomethyl)lysine and method of inhibiting nitric oxide formation in body” (Cornell Research Foundation, Inc., priority 1993, dated 1995)
Read-outs that look alike come from different tables or passages of the source.

Tests used:
[1] = target: T1, constitutive isoform of nitric oxide synthase (Rattus norvegicus, UniProt Q62600); assay: Inhibition of acetylcholine relaxation of phenylephrine-contracted rat aortic rings (Example VI)
T1 construct: from tissue; host or cells: isolated rat aortic rings (2-3 mm)
T1 sequence (Q62600 2-1202 limits assumed): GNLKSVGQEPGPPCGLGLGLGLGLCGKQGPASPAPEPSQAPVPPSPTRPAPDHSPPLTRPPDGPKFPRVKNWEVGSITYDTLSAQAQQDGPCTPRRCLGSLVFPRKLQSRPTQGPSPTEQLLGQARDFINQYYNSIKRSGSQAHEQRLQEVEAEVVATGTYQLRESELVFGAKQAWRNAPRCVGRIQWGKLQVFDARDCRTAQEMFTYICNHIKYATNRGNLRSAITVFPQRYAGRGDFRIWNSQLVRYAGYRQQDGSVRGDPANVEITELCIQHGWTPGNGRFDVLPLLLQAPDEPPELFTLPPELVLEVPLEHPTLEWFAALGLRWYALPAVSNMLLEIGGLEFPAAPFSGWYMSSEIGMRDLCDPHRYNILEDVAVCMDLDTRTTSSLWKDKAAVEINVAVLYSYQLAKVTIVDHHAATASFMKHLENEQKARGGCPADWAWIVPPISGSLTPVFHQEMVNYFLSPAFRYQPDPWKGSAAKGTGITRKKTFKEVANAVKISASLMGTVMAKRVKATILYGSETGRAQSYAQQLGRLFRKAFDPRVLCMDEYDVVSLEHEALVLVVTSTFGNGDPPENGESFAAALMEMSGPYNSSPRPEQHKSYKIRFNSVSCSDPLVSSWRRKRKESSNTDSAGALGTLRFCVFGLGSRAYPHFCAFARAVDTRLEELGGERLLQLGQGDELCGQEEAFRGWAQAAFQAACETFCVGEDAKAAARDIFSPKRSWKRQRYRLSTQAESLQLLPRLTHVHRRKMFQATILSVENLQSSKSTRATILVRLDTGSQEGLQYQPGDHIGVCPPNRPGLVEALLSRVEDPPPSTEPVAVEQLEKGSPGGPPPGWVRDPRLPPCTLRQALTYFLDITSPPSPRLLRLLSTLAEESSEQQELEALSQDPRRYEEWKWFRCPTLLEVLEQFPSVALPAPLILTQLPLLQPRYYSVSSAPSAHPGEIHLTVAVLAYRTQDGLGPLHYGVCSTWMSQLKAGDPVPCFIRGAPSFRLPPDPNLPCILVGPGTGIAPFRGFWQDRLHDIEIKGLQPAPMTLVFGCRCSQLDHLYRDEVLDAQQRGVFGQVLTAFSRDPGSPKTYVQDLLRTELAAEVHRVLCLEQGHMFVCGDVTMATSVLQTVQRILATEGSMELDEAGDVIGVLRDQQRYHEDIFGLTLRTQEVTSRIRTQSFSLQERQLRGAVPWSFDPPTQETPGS
Description: In vitro studies with rat aortic rings were carried out to test the effect of N^6 -(hydrazinoiminomethyl)-L-lysine relative to other known inhibitors of the constitutive isoform of nitric oxide synthase. Aortic rings (2-3 mm) were isolated, suspended under a resting tension of 2.00 gm in 5 ml glass chambers containing Krebs-Henseleit solution gassed with 95% 02 and 5% CO2 at 37° C. as described previously for vascular rings from guinea pigs (O.A. Fasehun et al, (1990) J. Pharmacol. Exp. Ther. 255, 1348-1353). The aortic rings were then contracted by addition of 0.03 μM phenylephrine to the bathing solution, and the tension of the rings was measured. Acetylcholine, an agonist that stimulates the formation of nitric oxide by constitutive nitric oxide synthase in the vascular endothelium, was next added to a final concentration of 1 μM. The nitric oxide formed in response to acetylcholine causes the vascular smooth muscle of the aortic rings to relax, and the decrease in tension is measured. Inhibitors of nitric oxide synthase decrease the extent to which acetylcholine causes relaxation of the phenylephrine-contracted aortic rings. In the study, rings were contracted with phenylephrine, relaxed with acetylcholine, and then increasing doses of inhibitor were added to the bathing solution to overcome the effect of acetylcholine. The dose of inhibitor is denoted on the X-axis.

[2] = test system: inducible isoform of nitric oxide synthase; conditions: cited from earlier work
[3] = test system: nitric oxide synthase; assay: Efficacy on arterial blood pressure in endotoxin-treated anesthetized dog (Example IV); type: in vivo
Description: To test the efficacy of N^6 -(hydrazinoiminomethyl)-L-lysine, a 28 kg fasted dog was anesthetized with pentobarbital (25 mg/kg, i.v.), orotracheally intubated to allow ventilation with a Harvard pump, and instrumented to allow arterial blood pressure to be monitored via a central catheter. After a constant normal blood pressure had been observed for about 90 min., a solution containing 2 mg/kg body weight of endotoxin (E. coli lipopolysaccharide obtained from Sigma Chemical Co.) was given as an intravenous bolus injection. […] When the mean arterial blood pressure had declined to about 70 mm Hg, a bolus intravenous injection of 20 mg/kg of N^6 -(hydrazinoiminomethyl)-L-lysine monohydrochloride (denote HAA) was given. […] At that time, the dog was given a bolus intravenous injection of 400 mg/kg of L-arginine (denoted L-ARG), the substrate of nitric oxide synthase and a specific antagonist of nitric oxide synthase inhibitors competing for the L-arginine binding site.

[4] = Toxicity in awake dog, i.v. bolus plus infusion (Example II); type: in vivo
Description: To test the toxicity of N^6 -(hydrazinoiminomethyl)-L-lysine, a 30 kg awake dog was administered the hydrochloride salt of the drug at a dose of 20 mg/kg body weight as a single intravenous (i.v.) bolus. […] After 30 min., an additional dose of 20 mg/kg was given and an i.v. infusion of drug at a rate of 10 mg/kg body weight per hour was started. The infusion was continued for 5 hours. […] The spasms ended within 24 hours (48 hours after the experiment started), and the dog appeared normal and well in all respects.

[5] = target: T2, cytokine-induced nitric oxide synthase isozyme (Mus musculus, UniProt P29477); assay: Nitrite formation by cytokine-induced cultured mouse brain endothelial cells (Example V); type: cell-based
T2 construct: endogenous in cells; host or cells: cultured mouse brain endothelial cells induced with gamma-interferon and tumor necrosis factor
Description: In vitro studies with cultured endothelial cells were carried out to test the efficacy of N^6 -(hydrazinoiminomethyl)-L-lysine as an inhibitor of the cytokine-induced nitric oxide synthase isozyme relative to established inhibitors. Cultured mouse brain endothelial cells were grown for 18 hrs. in the presence of 1000 units/ml of gamma-interferon and 5000 units/ml of tumor necrosis factor, conditions shown previously to cause enzyme induction (R. Kilbourn and P. Belloni (1990) in "Nitric Oxide from L-Arginine: A Bioregulatory System" (S. Moncada and E. A. Higgs, eds.) pp. 61-67, Elsevier Science Publishers, Amsterdam). For control cells the culture media contained 50% Dulbecco's Modified Eagle's Medium, 45% Ham's F12 Medium with 5% fetal calf serum. […] Nitric oxide formation was monitored by following the increase in the concentration of nitrite in the culture medium. Nitric oxide spontaneously oxidizes to nitrite under the incubator conditions.

[6] = design: species or system Swiss-Webster mice; conditions: mouse, in vivo, sc
Description: To test the long-term toxicity of N^6 -(hydrazinoiminomethyl)-L-lysine,0.209 ml of a 200 mM solution of the hydrochloride salt of the drug (48 mg/ml) was loaded into each of three Alzet Osmotic Pumps (Model 2001), and the pumps were implanted subcutaneously on the backs of three individual Swiss-Webster mice (wts. 30.7, 34.8 and 33.4 gms) under pentobarbital anesthesia. Each pump delivered the solution of drug at a rate of […] for 1 week.

[7] = rat aortic rings, 0.03 μM phenylephrine, 1 μM acetylcholine, read-out: concentration needed to overcome 50% of the relaxation caused by acetylcholine (ED50)
[8] = ratio of ED 50% approx., inducible isoform

For `N=C(NCCC[C@H](N)C(=O)O)N[N+](=O)[O-]` [NNA, N^G -nitro-L-arginine], the IC50 [1, 7] is given as about 1.5 µM and the “rank as inhibitor of the inducible isoform among NNA, NAA, NMMA, HAA” value [2] is given as “least effective inhibitor of the inducible isoform”.
In the case of `N=C(N)NCCC[C@H](N)C(=O)O` [L-ARG, L-arginine, reference compound], the “blood pressure after reversal by substrate” value ([3]; endotoxin dog treated with HAA, then 400 mg/kg i.v. bolus) is reported as “dropped precipitously to a level characteristic of septic (endotoxic) shock”.
In the case of `N/N=C(\N)NCCC[C@H](N)C(=O)O` [NAA, N^G -amino-L-arginine, reference compound], the “toxicity at the same dose under similar circumstances” value ([4]; awake dog, same dose as N6-(hydrazinoiminomethyl)-L-lysine) is reported as “major seizures”, the IC50 [5] is reported as about 62.5 µM and the IC50 [1] is reported as about 4.2 µM.
In the case of `NN=C(N)NCCCC[C@H](N)C(=O)O` [HAA, N^6 -(hydrazinoiminomethyl)-L-lysine], the “late signs of toxicity” value ([4]; dog, in vivo) is reported as “periodic isolated myoclonic muscle spasms”, the “time until muscle spasms ended” value ([4]; dog, in vivo) is reported as at most 24 h and the signs of toxicity ([4]; dog, in vivo, iv, 20 mg/kg) is reported as “no signs of toxicity”. The survival [6] was over 4 weeks, the “increase of blood pressure” value ([3]; endotoxin 2 mg/kg dog, mean arterial pressure about 70 mm Hg, 20 mg/kg i.v. bolus, within a few minutes) was “about 30 mm Hg” and the “time blood pressure remained in physiologically acceptable range” value ([3]; endotoxin dog, after 20 mg/kg i.v. bolus) was “about 45 min”. The IC50 ([5]; mouse brain endothelial cells, 18 hrs with gamma-interferon 1000 units/ml and tumor necrosis factor 5000 units/ml, read-out: dose required for approximately 50% inhibition (ED 50% approx.) of nitrite formation) was about 15.6 µM, the “potency relative to NAA” value [5, 8] was “approximately 4 times” and the “potency relative to NMMA” value [5, 8] was “approximately 8 times”. For the same compound, the IC50 [1, 7] was about 10.3 µM.
In the case of `CNC(=N)NCCC[C@H](N)C(=O)O` [NMMA, N^G -methyl-L-arginine], the IC50 [1, 7] is reported as about 10.2 µM.
With `NN=C(N)NCCCCC(N)C(=O)O` (racemic) [N^6 -(hydrazinoiminomethyl)-D,L-lysine, N^6 -(Hydrazinoiminomethyl)-D,L-lysine] the “blood pressure increase compared with L-form” value ([3]; as Example IV, twice the dosage of the L-form) was “substantially equal results” and the “inhibition of nitrite formation by induced endothelial cells compared with L-form” value ([5]; as Example V, twice the concentration of the L-form) was “substantially equal results”.
